Test results taken from patent US8945397B2, “Methods of inhibiting cyanobacteria growth by administering gramine derivatives” (priority 2012, dated 2015).

Assays:
M. Aeruginosa [1] = assay: Liquid culture optical absorption assay (OD600) of M. aeruginosa growth, 15 days; type: cell-based, Microcystis aeruginosa; details: for OD600 Measured at Day 15 (Starting OD600 at Day 0 is 0.100): 0.5 mg/L compound, liquid culture, control 2.83; for Inhibition of M. aeruginosa growth in words (liquid culture): 0.5 mg/L, Table 2 and FIG. 3
Protocol: To quantitatively measure M. Aeruginosa cell growth in responding to various gamine compounds, cell densities were determined by an optical absorption assay as measured by a spectrophotometer (Nanodrop 2000, Thermo Scientific). In the optical absorption assay, the absorbance of radiation (light) is measured as a function of frequency (wavelength). For this optical absorption assay, the algal cell density was determined at 600 nm wavelength. Equal amount of starting cells (optical density at wavelength 600 nm, OD600, was at 0.100 on Day 0) were placed in freshwater culture for 15 days of growth. After 15 days, the algae cell suspension is pipetted into a cuvette and placed within the spectrophotometer for the optical absorption assay.
There is a clear and distinct decrease in M. Aeruginosa algae growth when administered with 5,6-dichlogramine (Compound No. 9) and with 5,6,7-trichlorogramine (Compound No. 12) compared to M. Aeruginosa algae growth in control samples.

M. Aeruginosa [2] = details: according to the Hong articles; cited from earlier work
[3] = system: M. aeruginosa cyanobacterium; details: U.S. Pat. No. 7,612,049; cited from earlier work

SMILES	OD600 Measured at Day 15 (Starting OD600 at Day 0 is 0.100) (M. Aeruginosa [1])	further results
CN(C)Cc1c[nH]c2ccc(Cl)cc12 [Compound No. 1, 5-chlorogramine]	1.89	Inhibition of M. aeruginosa growth in words (liquid culture) (M. Aeruginosa [1]): some inhibitory effects
CN(C)Cc1c[nH]c2ccccc12 [N,N-dimethyl-3-amino-methylindole]	–	concentration needed to inhibit the growth of M. aeruginosa (M. Aeruginosa [2]): at least 8 mg/L
CN(C)Cc1c[nH]c2ccc(Br)cc12 [compound 2, 5-bromogramine]	1.95	Inhibition of M. aeruginosa growth in words (liquid culture) (M. Aeruginosa [1]): some inhibitory effects
COc1ccc2[nH]cc(CN(C)C)c2c1 [compound 3, 5-methoxygramine]	2.45	–
Cc1cccc2[nH]cc(CN(C)C)c12 [compound 4, 4-methylgramine]	2.49	–
CN(C)Cc1c[nH]c2ccc(C#N)cc12 [compound 5, 5-cyanogramine]	2.32	–
CN(C)Cc1c[nH]c2cc(OCc3ccccc3)ccc12 [compound 7, 6-benzyloxygramine]	2.12	Inhibition of M. aeruginosa growth in words (liquid culture) (M. Aeruginosa [1]): some inhibitory effects
CN(C)Cc1c[nH]c2cccc(OCc3ccccc3)c12 [compound 8, 4-benzyloxygramine]	2.54	–
COc1cccc2[nH]cc(CN(C)C)c12 [compound 10, 4-methoxygramine]	2.66	–
CN(C)Cc1c[nH]c2cccc(C#N)c12 [compound 11, 4-cyanogramine]	2.50	–
N[C@H]1C(O)O[C@H](CO)[C@@H](O)[C@@H]1O (some centres unmarked) [glucosamine]	–	concentration to inhibit the growth of M. aeruginosa [3]: 10-50 ppm
